Results on 17 compounds are retold here after PMC6273226, “New Isoxazolidine-Conjugates of Quinazolinones—Synthesis, Antiviral and Cytostatic Activity” (Molecules, 2016).

In data set [1] the test system is TK+ VZV Oka strain. As to the kind of experiment: microbe, parasite or virus in culture. The class given is cell-based, varicella-zoster virus. As to conditions: Human alphaherpesvirus 3, HEL, read-out: Antiviral Activity EC50 TK+ VZV Strain.
In data set [2] the test system is TK- VZV 07-1 strain. Kind of data set: microbe, parasite or virus in culture. The class given is cell-based, varicella-zoster virus. As to conditions: for EC50: Human alphaherpesvirus 3, HEL, read-out: Antiviral Activity EC50 TK- VZV Strain; for activity toward TK- VZV strain: result in words.
In data set [3] the test system is murine leukemia L1210. As to the kind of experiment: Cytostatic activity, inhibition of L1210 cell proliferation. The following applies: Mus musculus, L1210, 48 h, read-out: IC50 L1210. The data set is classed as cell-based. As to the method:
(§1) The 50% cytostatic inhibitory concentration (IC50) causing a 50% decrease in cell proliferation was determined against murine leukemia L1210, human lymphocyte CEM, human cervix carcinoma HeLa and immortalized human dermal microvacsular endothelial cells (HMEC-1).
(§2) Murine leukemia (L1210), human T-lymphocyte (CEM), human cervix carcinoma (HeLa) and immortalized human dermal microvascular endothelial cells (HMEC-1) were suspended at 300,000–500,000 cells/mL of culture medium, and 100 μL of a cell suspension was added to 100 μL of an appropriate dilution of the test compounds in 200 μL-wells of 96-well microtiter plates. After incubation at 37 °C for two (L1210), three (CEM) or four (HeLa) days, the cell number was determined using a Coulter counter. The IC50 was defined as the compound concentration required to inhibit cell proliferation by 50%.

Data set [4] relates to human T-lymphocyte (CEM). As to the kind of experiment: Cytostatic activity, inhibition of CEM cell proliferation. The data set is classed as cell-based. As to conditions: 72 h, read-out: IC50 CEM. As to the method: as §1, §2
Data set [5] relates to human cervix carcinoma (HeLa). As to the kind of experiment: Cytostatic activity, inhibition of HeLa cell proliferation. The class given is cell-based. As to conditions: 96 h, read-out: IC50 HeLa. As to the method:
as §1, §2

The subject of data set [6] is immortalized human dermal microvascular endothelial cells (HMEC-1). Kind of data set: Cytostatic activity, inhibition of HMEC-1 cell proliferation. The data set is classed as cell-based. The following applies: inhibition of cell proliferation by 50%. As to the method:
as §1, §2

The subject of data set [7] is human embryonic lung (HEL) cells. As to conditions: for Cytotoxicity Cell Morphology MCC: HEL cell cultures, minimum cytotoxic concentration; for cytotoxicity toward uninfected cells: at concentration up to 100 μM.
Data set [8] has as its system L1210, CEM, HeLa and HMEC-1 cells. Kind of data set: Cytostatic activity against the tested cell lines (L1210, CEM, HeLa, HMEC-1), summarised in text. The class given is cell-based. As to conditions: for inhibition of cell proliferation at the highest tested concentration: highest tested concentration 250 μM, L1210, CEM. As to the method:
as §1, §2

Data set [9] deals with human cytomegalovirus AD-169 strain. As to the kind of experiment: Antiviral activity against human cytomegalovirus AD-169 strain in HEL cell cultures. The class given is cell-based. The following applies: Human betaherpesvirus 5, AD169.
Data set [10] has as its system human cytomegalovirus Davis strain. As to the kind of experiment: Antiviral activity against human cytomegalovirus Davis strain in HEL cell cultures. The class given is cell-based. As to conditions: Human betaherpesvirus 5.
In data set [11] the test system is human cytomegalovirus. Kind of data set: Antiviral activity against human cytomegalovirus, strain not given (AD-169 and Davis). The following applies: Human betaherpesvirus 5; range given for four compounds, strain not specified. The class given is cell-based.
Data set [12] has as its system influenza A virus. More on the design: method as in PMID 26017319. As to conditions: ref [34]; cited from earlier work.

Structures are written as SMILES. Read-outs that look alike come from different tables or passages of the source. Bounds are passed on as bounds.

For the compound `CCOP(=O)(OCC)[C@H]1C[C@H](c2nc3ccccc3c(=O)n2Cc2ccccc2F)ON1C` (relative stereo) [trans-11f/cis-11f (90:10), Diethyl trans-(5-(3-(2-fluorobenzyl)-4-oxo-3,4-dihydroquinazolin-2-yl)-2-methylisoxazolidin-3-yl)-phosphonate], the EC50 (usually the concentration giving half of the maximal effect) was 6.84 µM in data set [1] and greater than 20 µM in data set [2]. Further, the “activity toward TK- VZV strain” value in data set [2] is on record as “no activity”. The concentration for half-maximal inhibition (IC50) (as a rule, the midpoint of a concentration-inhibition curve) was 33 ± 7 µM in data set [3], 29 ± 13 µM in data set [4], 76 ± 11 µM in data set [5] and 77 µM in data set [6]. In data set [7] (Table 2 (VZV)), the “Cytotoxicity Cell Morphology MCC” value was found to be 100 μM. In data set [7], the “cytotoxicity toward uninfected cells” value was “without exhibiting cytotoxicity”.

As to `CCOP(=O)(OCC)[C@H]1C[C@H](c2nc3ccccc3c(=O)n2CC)ON1C` (relative stereo) [trans-11k/cis-11k (97:3), Diethyl trans-(5-(3-ethyl-4-oxo-3,4-dihydroquinazolin-2-yl)-2-methylisoxazolidin-3-yl)phosphonate], the EC50 in [1] was determined as 38.8 µM; in [2], 41.6 µM. The concentration for half-maximal inhibition (IC50) in data set [3] is 101 ± 17 µM; in data set [4], 85 ± 13 µM; in [5], 97 ± 10 µM; in data set [6] it was 86 ± 11 µM; in [8] (range over L1210, CEM, read-out: IC50 towards the tested cell lines), 85 to 101 µM. In addition, the “Cytotoxicity Cell Morphology MCC” value in data set [7] (Table 2 (VZV)) is on record as greater than 100 μM.

Take `Nc1ccn(C[C@@H](CO)OCP(=O)(O)O)c(=O)n1` [Cidofovir, reference compound]: the concentration giving a half-maximal response (EC50) in data set [9] came to 1.49 µM; in data set [10], 0.23 µM. In addition, the “Cytotoxicity Cell Morphology MCC” value in data set [7] (Table 3 (HCMV)) is on record as greater than 300 μM.

For the compound `CCOP(=O)(OCC)[C@H]1C[C@H](c2nc3ccccc3c(=O)n2Cc2ccc(F)cc2F)ON1C` (relative stereo) [trans-11i/cis-11i (97:3), Diethyl trans-(5-(3-(2,4-difluorobenzyl)-4-oxo-3,4-dihydroquinazolin-2-yl)-2-methylisoxazolidin-3-yl)-phosphonate], the EC50 in data set [1] is 9.44 µM; in data set [2], greater than 20 µM. Also, in data set [2], the “activity toward TK- VZV strain” value is listed as “no activity”. For the same compound, the concentration for half-maximal inhibition (IC50) in data set [3] was 26 ± 2 µM; in data set [4] it was 24 ± 8 µM; in data set [5], 55 ± 10 µM; in data set [6] it was 67 ± 4 µM. Besides, the “Cytotoxicity Cell Morphology MCC” value in [7] (Table 2 (VZV)) was 100 μM. In data set [7], the “cytotoxicity toward uninfected cells” value is listed as “without exhibiting cytotoxicity”.

With `O=c1[nH]cc(F)c(=O)[nH]1` [5-Fluorouracil, reference compound], the IC50 was 0.33 ± 0.17 µM in data set [3] (inhibition of cell proliferation by 50%, two days incubation); 18 ± 5 µM in data set [4] (inhibition of cell proliferation by 50%, three days incubation); 0.54 ± 0.12 µM in [5] (inhibition of cell proliferation by 50%, four days incubation).

With `CCOP(=O)(OCC)[C@H]1C[C@H](c2nc3ccccc3c(=O)n2Cc2ccccc2[N+](=O)[O-])ON1C` (relative stereo) [trans-11c, Diethyl trans-(2-methyl-5-(3-(2-nitrobenzyl)-4-oxo-3,4-dihydroquinazolin-2-yl)isoxazolidin-3-yl)-phosphonate], the EC50 in data set [1] is 46.5 µM; in data set [2], 100 µM; in [9], greater than 100 µM; in data set [10], 44.7 µM; in data set [11], 27 to 45 µM. The IC50 was found to be 87 ± 22 µM in data set [3], 76 ± 9 µM in data set [4], 97 µM in [5] and 92 ± 1 µM in data set [6]. Moreover, the “Cytotoxicity Cell Morphology MCC” value in data set [7] (Table 2 (VZV)) is greater than 100 μM.

For `O=c1[nH]c(=O)n([C@H]2C[C@H](O)[C@@H](CO)O2)cc1/C=C/Br` [Brivudin, reference compound], the half-maximal effective concentration (EC50) in data set [1] was determined as 0.019 µM; in data set [2] it was 25.6 µM. Further, the “Cytotoxicity Cell Morphology MCC” value in data set [7] (Table 2 (VZV)) was greater than 100 μM.

As to `O=c1c2ccccc2nc(-c2ccncc2)n1CCCN1CCOCC1` [Compound 5], the “activity against influenza A virus” value in data set [12] is “slight activity”.

Consider `CCOP(=O)(OCC)[C@H]1C[C@H](c2nc3ccccc3c(=O)n2C)ON1C` (relative stereo) [trans-11j, Diethyl trans-(2-methyl-5-(3-methyl-4-oxo-3,4-dihydroquinazolin-2-yl)isoxazolidin-3-yl)phosphonate], for which the IC50 in data set [3], in data set [4], in data set [5] and in data set [6] was greater than 250 µM in each case. The “inhibition of cell proliferation at the highest tested concentration” value in [8] is listed as “did not inhibit cell proliferation”.

For the compound `CCOP(=O)(OCC)[C@H]1C[C@H](c2nc3ccccc3c(=O)n2Cc2ccc([N+](=O)[O-])cc2)ON1C` (relative stereo) [trans-11e/cis-11e (90:10), Diethyl trans-(2-methyl-5-(3-(4-nitrobenzyl)-4-oxo-3,4-dihydroquinazolin-2-yl)isoxazolidin-3-yl)-phosphonate], the concentration for a half-maximal effect (EC50) in [1] was 34.2 µM; in data set [2], 42.9 µM; in [9], 44.7 µM; in data set [10] it was 20 µM; in [11], 27 to 45 µM. Further, the half-inhibitory concentration (IC50) in data set [3] stood at 59 ± 32 µM; in data set [4] it was 34 ± 12 µM; in data set [5], 76 ± 4 µM; in data set [6], 102 ± 3 µM. In addition, the “Cytotoxicity Cell Morphology MCC” value in data set [7] (Table 2 (VZV)) came to 100 μM.

For the compound `CCOP(=O)(OCC)[C@H]1C[C@H](c2nc3ccccc3c(=O)n2Cc2cccc([N+](=O)[O-])c2)ON1C` (relative stereo) [trans-11d/cis-11d (90:10), Diethyl trans-(2-methyl-5-(3-(3-nitrobenzyl)-4-oxo-3,4-dihydroquinazolin-2-yl)isoxazolidin-3-yl)-phosphonate], the IC50 in data set [3] came to 28 ± 11 µM; in data set [4], 21 ± 4 µM; in data set [5] it was 50 ± 4 µM; in [6] it was 58 µM.

Take `CCOP(=O)(OCC)[C@H]1C[C@H](c2nc3ccccc3c(=O)[nH]2)ON1C` (relative stereo) [trans-11a, Diethyl trans-(2-methyl-5-(4-oxo-3,4-dihydroquinazolin-2-yl)isoxazolidin-3-yl)phosphonate]: the IC50 in data set [3], in data set [4], in data set [5] and in data set [6] was greater than 250 µM in each case. The “inhibition of cell proliferation at the highest tested concentration” value in data set [8] is on record as “did not inhibit cell proliferation”.

For the compound `CCOP(=O)(OCC)[C@H]1C[C@H](c2nc3ccccc3c(=O)n2Cc2ccccc2)ON1C` (relative stereo) [trans-11b/cis-11b (90:10), Diethyl trans-(5-(3-benzyl-4-oxo-3,4-dihydroquinazolin-2-yl)-2-methylisoxazolidin-3-yl)phosphonate], the values for the concentration for a half-maximal effect (EC50) in data set [9], in data set [10] and in data set [11] were 44.7 µM, greater than 20 µM and 27 to 45 µM, respectively. Besides, the 50% inhibitory concentration (IC50) in data set [3] is 49 ± 23 µM; in data set [4] it was 28 ± 4 µM; in data set [5] it was 82 ± 5 µM; in data set [6], 83 ± 16 µM.

Take `O=c1[nH]c(-c2ccncc2)nc2ccccc12` [Compound 4]: the “activity against influenza A virus” value in data set [12] was “slight activity”.

Regarding `CCOP(=O)(OCC)[C@H]1C[C@H](c2nc3ccccc3c(=O)n2Cc2cccc(F)c2)ON1C` (relative stereo) [trans-11g, Diethyl trans-(5-(3-(3-fluorobenzyl)-4-oxo-3,4-dihydroquinazolin-2-yl)-2-methylisoxazolidin-3-yl)-phosphonate], the values for the EC50 in [9], in [10] and in data set [11] were greater than 100 µM, 27.6 µM and 27 to 45 µM, respectively. The IC50 in data set [3] is 35 ± 12 µM; in [4], 26 ± 6 µM; in [5] it was 62 ± 9 µM; in [6] it was 74 ± 3 µM.

Consider `Nc1nc(O)c2ncn(COC(CO)CO)c2n1` [Ganciclovir, reference compound], for which the half-maximal effective concentration (EC50) in data set [9] is 10.5 µM; in data set [10], 0.63 µM. For the same compound, in [7] (Table 3 (HCMV)), the “Cytotoxicity Cell Morphology MCC” value is greater than 350 μM.

With `CCOP(=O)(OCC)[C@H]1C[C@H](c2nc3ccccc3c(=O)n2Cc2ccc(F)cc2)ON1C` (relative stereo) [trans-11h, Diethyl trans-(5-(3-(4-fluorobenzyl)-4-oxo-3,4-dihydroquinazolin-2-yl)-2-methylisoxazolidin-3-yl)-phosphonate], the EC50 in data set [1] was 15.3 µM; in data set [2], greater than 20 µM. Also, in data set [2], the “activity toward TK- VZV strain” value is “no activity”. For the same compound, the half-maximal inhibitory concentration (IC50) in data set [3] came to 26 ± 1 µM; in [4], 30 ± 12 µM; in data set [5], 58 ± 5 µM; in data set [6], 78 ± 1 µM. Also, the “Cytotoxicity Cell Morphology MCC” value in [7] (Table 2 (VZV)) is given as 100 μM. For the same compound, in data set [7], the “cytotoxicity toward uninfected cells” value is on record as “without exhibiting cytotoxicity”.
